Series [1] concerns cell line ET (luc-ubi-neo/ET), Huh7 human hepatoma cell line.
Series [2] has the same test system. The series is described as follows: Cytotoxicity in secondary assay. Conditions: cellular ribosomal RNA as cytotoxicity control.
Series [3] can be described thus: Metabolic stability assay. The class given is in vitro ADME, human.
Series [4] relates to HCV 1b replicon. The series is described as follows: Secondary HCV antiviral assay: qRT-PCR. The class given is cell-based. On the technique in general: Real-time PCR tracks product formation cycle by cycle.
Series [5] can be described thus: Cytotoxicity in secondary assay. To be noted: human.
A short description of series [6]: in vitro. Conditions: human.
The conditions of series [7]: cited from earlier work.
[8] abbreviates: qRT-PCR (TaqMan) of HCV RNA, single assay, quadruplicate wells.
Where [9] appears, read: human liver microsomes, 0.1 µM, NADPH-regenerating system, 37 °C, mean of two independent experiments.

Like-named read-outs stand apart in the source and are kept apart here.

Compound `C[C@@]1(O)[C@H](O)[C@@H](CO)O[C@H]1n1ccc(=O)[nH]c1=O` [2’-C-Me-uridine, reference compound] came in with a CC50 in series [1] of over 100 µM.

In the case of `COC(=O)CC[C@H](NP(=O)(OC[C@H]1O[C@@H](n2ccc(=O)[nH]c2=O)[C@](C)(O)[C@@H]1O)Oc1ccccc1)C(=O)OC` (stereo partly drawn) [31a, 2′-C-Methyl-uridine-5′-[phenylbis(methoxy-L-glutamyl)]phosphate], the CC50 in series [1] was over 20 µM.

Compound `CC(C)CCOC(=O)CC[C@H](NP(=O)(OC[C@H]1O[C@@H](n2ccc(=O)[nH]c2=O)[C@](C)(O)[C@@H]1O)Oc1ccccc1)C(=O)OCCC(C)C` (stereo partly drawn) [31b, 2′-C-Methyl-uridine-5′-[phenylbis(isoamyl-L-glutamyl)]phosphate] came in with a CC50 in series [2] of 9.98 µM. In series [3] (human, microsomes), this compound registered a Clint of 844.60 µl/min/mg protein and a T1/2 of 8 min. The same compound yielded a CC50 in series [1] of over 20 µM. Moreover, in series [4] (setting [8]), a half-maximal response (EC50) required 0.01 µM and it took 0.13 µM to reach the 90% level (EC90).

On to `COC(=O)[C@H](COCc1ccccc1)NP(=O)(OC[C@H]1O[C@@H](n2ccc(=O)[nH]c2=O)[C@](C)(O)[C@@H]1O)Oc1ccccc1` (stereo partly drawn) [31c, 2′-C-Methyl-uridine-5′-[phenyl(α-methoxy-β-O-benzyl-L-serine)]phosphate], for which the CC50 in series [1] is over 20 µM.

In series [3] (human, microsomes), `CCCCCOC(=O)[C@H](COCc1ccccc1)NP(=O)(OC[C@H]1O[C@@H](n2ccc(=O)[nH]c2=O)[C@](C)(O)[C@@H]1O)Oc1ccccc1` (stereo partly drawn) [31d, 2′-C-Methyl-uridine-5′-[phenyl(α-amyl-β-O-benzyl-L-serine)]phosphate] gave a Clint of 496.80 µl/min/mg protein and a T1/2 of 14 min. In series [1], this compound displayed a CC50 of 5.89 µM.

For the compound `CC(C)CCOC(=O)[C@H](COCc1ccccc1)NP(=O)(OC[C@H]1O[C@@H](n2ccc(=O)[nH]c2=O)[C@](C)(O)[C@@H]1O)Oc1ccccc1` (stereo partly drawn) [31e, 2′-C-Methyl-uridine-5′-[phenyl(α-isoamyl-β-O-benzyl-L-serine)]phosphate], in series [2], the CC50 stood at 4.59 µM. Besides, in series [1], the CC50 amounted to 8 µM. Besides, in series [4] (setting [8]), it took 0.01 µM to reach a half-maximal effect (EC50) and the 90% effect level (EC90) was put at 0.08 µM.

Regarding `COC(=O)[C@H](COC(=O)C(C)C)NP(=O)(OC[C@H]1O[C@@H](n2ccc(=O)[nH]c2=O)[C@](C)(O)[C@@H]1O)Oc1ccccc1` (stereo partly drawn) [31f, 2′-C-Methyl-uridine-5′-[phenyl(α-methoxy-β-O-isobutyryl-L-serine)]phosphate], the CC50 in series [1] was over 20 µM.

For `CCCCCOC(=O)[C@H](COC(=O)C(C)C)NP(=O)(OC[C@H]1O[C@@H](n2ccc(=O)[nH]c2=O)[C@](C)(O)[C@@H]1O)Oc1ccccc1` (stereo partly drawn) [31g, 2′-C-Methyl-uridine-5′-[phenyl(α-amyl-β-O-isobutyryl-L-serine)]phosphate], the CC50 in series [1] was determined as 6.79 µM.

Compound `CC(C)CCOC(=O)[C@H](COC(=O)C(C)C)NP(=O)(OC[C@H]1O[C@@H](n2ccc(=O)[nH]c2=O)[C@](C)(O)[C@@H]1O)Oc1ccccc1` (stereo partly drawn) [31h, 2′-C-Methyl-uridine-5′-[phenyl(α-isoamyl-β-O-isobutyryl-L-serine)]phosphate] displayed a CC50 in series [2] of 5.28 µM. Besides, in series [3] (human, microsomes), the Clint turned out to be 763.70 µl/min/mg protein and the T1/2 amounted to 9 min. This compound came in with a CC50 in series [1] of 7.51 µM. Also, in series [4] (setting [8]), the concentration for a half-maximal effect (EC50) (usually the concentration needed to bring the measured effect to its halfway point) is 0.02 µM and the EC90 (usually the concentration at which the effect reaches the 90% level) was 0.13 µM.

As to `CC(C)CCOC(=O)[C@@H](NP(=O)(OC[C@H]1O[C@@H](n2ccc(=O)[nH]c2=O)[C@](C)(O)[C@@H]1O)Oc1ccccc1)[C@@H](C)OCc1ccccc1` (stereo partly drawn) [31i, 2′-C-Methyl-uridine-5′-[phenyl(isoamyl-O-benzyl-L-threonine)]phosphate], in series [2], the CC50 was found to be 7.27 µM. Also, in series [3] (human, microsomes), the Clint is recorded as 699.00 µl/min/mg protein and the T1/2 is 10 min. In series [1], this compound gave a CC50 of over 20 µM. In series [4] (setting [8]), this compound had an EC50 of 0.04 µM and an EC90 of 0.69 µM.

`CC(C)CCOC(=O)[C@@H](NP(=O)(OC[C@H]1O[C@@H](n2ccc(=O)[nH]c2=O)[C@](C)(O)[C@@H]1O)Oc1ccccc1)[C@@H](C)OC(=O)C(C)C` (stereo partly drawn) [31j, 2′-C-Methyl-uridine-5′-[phenyl(isoamyl-O-isobutyryl-L-threonine)]phosphate] displayed a CC50 in series [1] of 11.5 µM.

As to `CC(C)CCOC(=O)[C@H](Cc1ccc(OC(=O)C(C)C)cc1)NP(=O)(OCC1OC(n2ccc(=O)[nH]c2=O)C(C)(O)C1O)Oc1ccccc1` (stereo partly drawn) [31k, 2′-C-Methyl-uridine-5′-[phenyl(isoamyl-O-isobutyryl-L-tyrosine)]phosphate], the CC50 in series [2] was 18.4 µM. In series [3] (setting [9]), this compound registered a Clint of 679.60 µl/min/mg protein and a T1/2 of 10 min. This compound also displayed a CC50 in series [1] (concentration decreasing cell viability by 50%, 72 hrs, CytoTox-ONE) of over 20 µM. Further, in series [4] (setting [8]), the concentration for a half-maximal effect (EC50) turned out to be 0.04 µM and the 90% effect level (EC90) was put at 0.69 µM.

For the compound `CC(C)OC(=O)[C@H](C)N[P@](=O)(OC[C@H]1O[C@@H](n2ccc(=O)[nH]c2=O)[C@](C)(F)[C@@H]1O)Oc1ccccc1` [Sofosbuvir, reference compound], the CC50 in series [5] and in series [6] was over 5 µM each time. Further, the “cytotoxicity (devoid up to)” value in series [7] is reported as over 100 µM. In series [4] (Hepatitis C virus), this compound returned a 50% effective concentration (EC50) of 0.07 µM. The 90% effect level in series [4] (Hepatitis C virus) (EC90) was put at 0.28 µM.

These data come from article PMC5079539 (Organic & biomolecular chemistry, 2016).
